Measurements published in the supplement of paper PMC10307832.

Each cell line was assayed with COc1cc(-c2nn([C@H]3CC[C@H](N4CCN(C(C)=O)CC4)CC3)c3ncnc(N)c23)ccc1NC(=O)c1cc2ccccc2n1C + Cc1nc(NC(=O)N2CCC[C@H]2C(N)=O)sc1-c1ccnc(C(C)(C)C(F)(F)F)c1 [Alpelisib] (partner 2 µM) (assay: relative viability (nuclei count vs DMSO), 5 days (fraction); higher = more cells survive). Conditions: first compound 0.04048 µM.
Procedure, shortened: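 Relative viability was taken as the ratio of nuclei in treated wells to nuclei in vehicle wells. Lung cancer cell lines in 1536-well plates received compounds by pin tool one day after seeding, either one drug alone or a fixed anchor-drug dose plus five library-drug doses (not always all listed) in √10 steps. Nuclei were counted on 4× images after 5 days of treatment, and values are medians of duplicate plates.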

Cell Line	relative viability
Calu-6	0.936
HCC-366	0.374
NCI-H1666	0.864
NCI-H596	0.511
LK-2	1.26
NCI-H2087	0.781
SK-MES-1	0.872
H3255	0.615
COR-L23	0.97
IA-LM	0.803
HCC-44	0.763
A549	0.774
NCI-H661	0.526
NCI-H1299	1.11
NCI-H1792	0.593
NCI-H1563	0.918
ABC-1	1.08
NCI-H358	0.747
NCI-H650	1.34

Same assay, conditions: first compound 0.128 µM

Cell Line	relative viability
NCI-H727	0.454
EBC-1	0.723
NCI-H1703	0.228
NCI-H1993	0.599
SW 1573	0.695
NCI-H838	1.01
LCLC-103H	0.88
NCI-H520	0.697
NCI-H2126	0.746
EMC-BAC-2	0.696
NCI-H2085	0.975
Calu-6	0.943
HCC-366	0.418
NCI-H1666	0.921
NCI-H596	0.516
LK-2	1.07
NCI-H2087	1.27
SK-MES-1	0.789
H3255	0.607
COR-L23	0.682
IA-LM	0.783
HCC-44	0.789
A549	0.862
NCI-H661	0.729
NCI-H1299	1.06
NCI-H1792	0.719
NCI-H1563	0.998
ABC-1	0.78
NCI-H358	0.76
NCI-H650	1.12

Same assay, conditions: first compound 1.28 µM

Cell Line	relative viability
NCI-H727	0.405
EBC-1	0.732
NCI-H1703	0.157
NCI-H1993	0.569
SW 1573	0.509
NCI-H838	0.664
LCLC-103H	0.775
NCI-H520	0.471
NCI-H2126	0.536
EMC-BAC-2	0.514
NCI-H2085	0.658
Calu-6	0.829
HCC-366	0.259
NCI-H1666	0.769
NCI-H596	0.271
LK-2	0.789
NCI-H2087	1.2
SK-MES-1	0.668
H3255	0.433
COR-L23	0.682
IA-LM	0.84
HCC-44	0.511
